Measured values from ChEMBL document CHEMBL4840323, “Discovery of an Orally Bioavailable Small-Molecule Inhibitor for the β-Catenin/B-Cell Lymphoma 9 Protein-Protein Interaction” (J Med Chem, 2021).
pIC50: −log10 of the molar value. The source made the active and inactive calls. The rule behind the calls is not given here.

How the values were obtained:
[1] = tested on: MDA-MB-231; assay: Induction of apoptosis in human MDA-MB-231 cells assessed as late apoptotic cells at 20 uM measured after 72 hrs by annexinV-FITC/propidium iodide staining based flow cytometry (reference value: 8.8 %); type: functional
[2] = tested on: MDA-MB-231; assay: Induction of apoptosis in human MDA-MB-231 cells assessed as early apoptotic cells at 40 uM measured after 72 hrs by annexinV-FITC/propidium iodide staining based flow cytometry (reference value: 5.3 %); type: functional
[3] = tested on: MDA-MB-231; assay: Antiproliferative activity against human MDA-MB-231 cells harboring empty pcDNA3.1 vector at 20 uM measured after 72 hrs by MTS assay; type: functional, cell-based
[4] = tested on: MDA-MB-468; assay: Antiproliferative activity against human MDA-MB-468 cells harboring empty pcDNA3.1 vector at 10 uM measured after 72 hrs by MTS assay; type: functional, cell-based
[5] = tested on: MDA-MB-231; assay: Antiproliferative activity against human MDA-MB-231 cells harboring beta-catenin pcDNA3.1 vector at 20 uM measured after 72 hrs by MTS assay; type: functional, cell-based
[6] = tested on: MDA-MB-468; assay: Antiproliferative activity against human MDA-MB-468 cells harboring beta-catenin pcDNA3.1 vector at 20 uM measured after 72 hrs by MTS assay; type: functional, cell-based
[7] = tested on: MDA-MB-231; assay: Induction of apoptosis in human MDA-MB-231 cells assessed as early apoptotic cells at 10 uM measured after 72 hrs by annexinV-FITC/propidium iodide staining based flow cytometry (reference value: 5.3 %); type: functional
[8] = tested on: MDA-MB-468; assay: Induction of apoptosis in human MDA-MB-468 cells assessed as early apoptotic cells at 10 uM measured after 72 hrs by annexinV-FITC/propidium iodide staining based flow cytometry (reference value: 28.9 %); type: functional
[9] = tested on: MDA-MB-468; assay: Induction of apoptosis in human MDA-MB-468 cells assessed as early apoptotic cells at 20 uM measured after 72 hrs by annexinV-FITC/propidium iodide staining based flow cytometry (reference value: 28.9 %); type: functional
[10] = tested on: MDA-MB-468; assay: Induction of apoptosis in human MDA-MB-468 cells assessed as late apoptotic cells at 40 uM measured after 72 hrs by annexinV-FITC/propidium iodide staining based flow cytometry (reference value: 13.9 %); type: functional
[11] = tested on: MCF-10A; assay: Induction of apoptosis in human MCF-10A cells assessed as early apoptotic cells at 10 uM measured after 72 hrs by annexinV-FITC/propidium iodide staining based flow cytometry (reference value: 28.9 %); type: cell-based
[12] = tested on: MCF-10A; assay: Induction of apoptosis in human MCF-10A cells assessed as late apoptotic cells at 10 uM measured after 72 hrs by annexinV-FITC/propidium iodide staining based flow cytometry (reference value: 13.9 %); type: cell-based
[13] = Solubility of the compound in 0.9% NaCl at 2 mg/ml; type: physicochemical
[14] = Solubility of the compound in EtOH/saline (5/95) at 2 mg/ml; type: physicochemical; conditions: buffer
[15] = Solubility of the compound in DMSO/Tween-80/H2O (10/10/80) at 2 mg/ml; type: physicochemical
[16] = Half life in human liver microsomes at 1 uM measured up to 60 mins in presence of NADPH by LC-MS/SM analysis; type: ADME, Microsome; conditions: 1 h
[17] = Half life in mouse liver microsomes at 1 uM measured up to 60 mins in presence of NADPH by LC-MS/SM analysis; type: ADME, Microsome; conditions: 1 h
[18] = Intrinsic clearance in human liver microsomes at 1 uM measured up to 60 mins in presence of NADPH by LC-MS/SM analysis; type: ADME, Microsome
[19] = Cmax in C57BL/6 mouse at 1 mg/kg, iv measured after 5 mins by LC-MS/MS analysis; type: ADME, organism-based; set-up: route intravenous, dose 1 mg/kg, time 5 min; conditions: in vivo
[20] = AUC in C57BL/6 mouse at 1 mg/kg, iv measured after 5 mins by LC-MS/MS analysis; type: ADME, organism-based; set-up: route intravenous, dose 1 mg/kg, time 5 min; conditions: in vivo
[21] = Volume of distribution in C57BL/6 mouse at 1 mg/kg, iv measured after 5 mins by LC-MS/MS analysis; type: ADME, organism-based; conditions: in vivo
[22] = Cmax in C57BL/6 mouse at 20 mg/kg, po via gavage measured up to 24 hrs by LC-MS/MS analysis; type: ADME, organism-based; set-up: route oral, dose 20 mg/kg, time <=24; conditions: in vivo
[23] = Clearance in C57BL/6 mouse at 20 mg/kg, po via gavage measured up to 24 hrs by LC-MS/MS analysis; type: ADME, organism-based; conditions: in vivo
[24] = Half life in C57BL/6 mouse at 20 mg/kg, po via gavage measured up to 24 hrs by LC-MS/MS analysis; type: ADME, organism-based; conditions: in vivo
[25] = tested on: MDA-MB-231; assay: Antiinvasive activity against human MDA-MB-231 cells cultured as 3D-spheroids at 5 uM measured after 6 days by imaging analysis relative to control; type: functional; conditions: time 6 day
[26] = tested on: MDA-MB-231; assay: Antiinvasive activity against human MDA-MB-231 cells cultured as 3D-spheroids measured after 6 days by imaging analysis; type: functional, cell-based; conditions: dose 5-40 µM, time 6.0 day
[27] = tested on: 4013; assay: Antitumor activity against patient-derived 4013 cells orthotopically xenografted in SCID-Beige mouse assessed as reduction in tumor weight at 90 mg/kg, po via gavage for 5 days; type: functional, organism-based; conditions: Homo sapiens, time 5.0 day
[28] = Toxicity in SCID-Beige mouse orthotopically xenografted with patient-derived 4013 cells at 90 mg/kg, po via gavage for 5 days; type: organism-based; conditions: in vivo, 120 h, time 5 day
[29] = tested on: SW480; assay: Inhibition of Wnt/beta-catenin transactivation signalling in human SW480 cells assessed as relative activity at 1.56 uM measured after 24 hrs by TOPFlash reporter gene assay relative to control; type: cell-based; set-up: scale not given: the % may be the effect or the level left
[30] = tested on: MDA-MB-468; assay: Inhibition of Wnt/beta-catenin transactivation signalling in Wnt3a stimulated human MDA-MB-468 cells assessed as relative activity at 6.25 uM measured after 24 hrs by TOPFlash reporter gene assay relative to control; type: cell-based; set-up: scale not given: the % may be the effect or the level left
[31] = tested on: MDA-MB-468; assay: Inhibition of Wnt/beta-catenin transactivation signalling in Wnt3a stimulated human MDA-MB-468 cells assessed as relative activity at 12.5 uM measured after 24 hrs by TOPFlash reporter gene assay relative to control; type: cell-based; set-up: scale not given: the % may be the effect or the level left
[32] = tested on: SW480; assay: Downregulation of HPRT mRNA expression in human SW480 cells at 10 to 40 uM measured after 24 hrs by qRT-PCR analysis; type: functional, cell-based; conditions: dose 10-40 µM
[33] = organism: Mus musculus; conditions: dose 90.0 mg/kg, time 5.0 day
[34] = organism: Mus musculus; conditions: dose 90.0 mg/kg, time 5.0 day; remark: listed apart in the source
[35] = organism: Mus musculus; conditions: dose 90.0 mg/kg, time 5.0 day; remark: listed apart in the source
[36] = organism: Mus musculus; conditions: dose 90.0 mg/kg, time 5.0 day; remark: listed apart in the source
[37] = tested on: MDA-MB-468; assay: cells; conditions: Homo sapiens, MDA-MB-468, 72 h
Description: Antiproliferative activity against human MDA-MB-468 cells assessed as cell growth inhibition measured after 72 hrs by MTS assay

[38] = tested on: HCT-116; assay: cells; conditions: Homo sapiens, HCT-116, 72 h
Description: Antiproliferative activity against human HCT-116 cells assessed as cell growth inhibition measured after 72 hrs by MTS assay

[39] = tested on: MCF-10A; assay: cells; conditions: Homo sapiens, 72 h
Description: Cytotoxicity against human MCF-10A cells assessed as cell growth inhibition measured after 72 hrs by MTS assay

[40] = tested on: MDA-MB-231; assay: Downregulation of HPRT mRNA expression in Wnt3a stimulated human MDA-MB-231 cells at 10 to 40 uM measured after 24 hrs by qRT-PCR analysis; conditions: dose 10-40 µM

CC(C)(Oc1cccc(N2CCC[C@@H](C(=O)N(Cc3ccc(-c4cn[nH]c4)cc3)C3CC3)C2)c1)C(=O)N1CCNCC1.Cl
Activity [1]: 23% | Activity [2]: 53.1% | Activity [3]: Active | Activity [4]: Active | Activity [5]: inactive | Activity [6]: inactive | Activity [7]: 5.4% | Activity [8]: 17.5% | Activity [9]: 34.6% | Activity [10]: 33.4% | Activity [11]: 1.9% | Activity [12]: 12.3% | solubility [13]: Soluble | solubility [14]: Soluble | solubility [15]: Soluble | t1/2 [16]: 38.4 min | t1/2 [17]: 9.6 min | CLint at 1 h, 1 µM [18]: 18 µL/min/mg | Cmax [19]: 790 nM | AUC [20]: 0.71 µM·h | Vd [21]: 8 L/kg | Cmax [22]: 3210 nM | CL/F [23]: 51.1 mL/min/kg | t1/2 [24]: 184 min | Activity [25]: 76.3% | Activity [26]: Dose-Dependent Effect | Activity [27]: inactive | Activity [28]: Toxic | Activity [29]: 95% | Activity [30]: 102% | Activity [31]: 96% | Activity [32]: inactive | inhibition [33]: Active | inhibition [34]: Active | inhibition [35]: Active | inhibition [36]: Active | pIC50 [37]: 5.02 | pIC50 [38]: 4.12 | pIC50 [39]: 4.04 | Activity [40]: inactive
